Values quoted from earlier work in patent US9682063B2, “HCD formulation for cancer treatment” (National Dong Hwa University, priority 2015, dated 2017).

Key:
CML K562 cells = conditions: background statement
[1] = background statement

water solubility [1]: poor water solubility
SMILES: CC1=CCCC2C1(C)CCC(C)C2(C)CCC1=CC(=O)OC1O (centres unmarked) [HCD, 16-Hydroxycleroda-3,13-dien-15,16-olide]
apoptosis in CML K562 cells (CML K562 cells): induces apoptosis in CML K562 cells
